Results on four compounds are retold here after patent US20080113038A1, “Composition For Promoting Osteogenesis And Increasing Bone Mineral Content” (priority 2004, published 2008).

The subject of test [1] is diaphysis and metaphysis tissues of rat femur. The experiment in a line: Calcium level in bone tissues in a bone tissue culture system. Particulars: for Change of calcium levels in bone tissues (in words) / Calcium level in bone tissues, diaphysis part / Calcium level in bone tissues, metaphysis part / Change of calcium levels in bone tissues compared to the control group (in words): 48 h culture, β-cryptoxanthin 10^−9 M; for Calcium level in bone tissues, diaphysis part / Calcium level in bone tissues, metaphysis part: mean ± SD, 5 rats; for Change of calcium level in bone tissues (in words): higher concentration of 10^−5 M; for Change of calcium levels in bone tissues compared to the control group (in words): both diaphysis and metaphysis.
Description: Rats (Wistar male rats; 4 weeks old, body weight 85-90 g; purchased from Japan SLC Ltd., and fed with solid Oriental yeast (MF)) were sacrificed under mild ether anesthesia. Muscle tissues around femur were removed completely, divided into diaphysis (cortical bone) and metaphysis (cancellous bone) tissues of femur, and then the bone marrow cells were washed and removed in a cold 0.25 M sucrose solution. The bone tissue pieces were cultured in a Dulbecco's modified Eagle's culture medium (serum-free, containing 50 units/ml penicillin and 50 μg/ml spretomycin, supplemented with 45 mg/ml glucose), in an CO2 incubator aseptically for 48 hours at 37° C. […] Bone tissues were put into a culture dish (with a diameter of 35 mm, made of plastic) added with 2.0 ml of the above mentioned culture solution, and cultured. After being cultured, bone tissues were washed well in a cold 0.25 M sucrose solution, dried at 100° C. for 5 hours, and weighed. Dried bone tissues were put into a test tube (15 ml), to which 2.0 ml of concentrated nitric acid was added, and the resultant was heated and degraded at 100° C. for 16 hours. After degradation, solution amount was measured. A specific amount thereof was diluted with purified distilled water, and calcium was determined by colorimetry (kit for measuring calcium, Wako Pure Chemical Industries). Calcium levels in bone tissues are indicated as mg per 1 g of dried weight of cultured bone tissues. In the above experiment, bone tissues obtained from one rat were put in one culture dish, and 5 culture dishes were used for 5 rats. 5 dishes were used for each of the control, β-cryptoxanthin alone group, zinc alone group, and the β-cryptoxanthin and zinc-combined group. […] A critical value of less than 5% was determined as having a significant difference.
In order to investigate the effect on calcium levels in bone tissues when β-cryptoxanthin and zinc, or genistein and menaquinone-7 are supplied in the bone tissue culture system, femur diaphysis and metaphysis tissues were cultured for 48 hours in a culture solution, in the same manner as in Example 1, and the calcium level in bone tissues was measured, compared and evaluated.

Test [2] has as its system alkaline phosphatase in bone tissues (femur diaphysis and metaphysis). The experiment in a line: Alkaline phosphatase activity in bone tissues in a bone tissue culture system. The class given is cell-based, rat. Particulars: 48 h culture, β-cryptoxanthin 10^−9 M, zinc 10^−6 M; for Alkaline phosphatase activity in bone tissues, diaphysis part / Alkaline phosphatase activity in bone tissues, metaphysis part: mean ± SD, 5 rats; for Change of alkaline phosphatase activity in bone tissues compared to the control group (in words): diaphysis and metaphysis. Here is the method:
(§1) After degradation, solution amount was measured.
(§2) The expression level of alkaline phosphatase, which is the most important enzyme for promoting bone calcification, was examined. […] The resultant liquid was centrifuged. The supernatant, as an enzyme solution, was determined by a method of Walter and Schutt (in Method of Enzymatic Analysis, Vol. 1-2, p. 856, Academic Press, New York, 1965). Namely, this method was carried out as follows: p-nitrophenylphosphoric acid was used as a substrate; 0.05 ml of the enzyme solution was added to 2 ml of diethanolamine buffer (pH 9.8). After the incubation at 37° C. for 30 minutes, 10 ml of 0.05 N NaOH was added to the mixture.

Test [3] deals with diaphysis and metaphysis tissues of rat femur. In words: DNA level in bone tissues in a bone tissue culture system. Particulars: 48 h culture, β-cryptoxanthin 10^−9 M, zinc 10^−6 M; for DNA level in bone tissues, diaphysis part / DNA level in bone tissues, metaphysis part: mean ± SD, 5 rats; for Change of DNA level in bone tissues compared to the control group (in words): diaphysis and metaphysis. The class given is cell-based. Here is the method:
as §1
(§3) DNA level was determined as an index of cell count in bone tissues. […] After osmosis at 4° C. for 24 hours, the liquid mixture was centrifuged. The supernatant was taken as a sample and determined by a method of Ceriotti et al. (J. Biol. Chem., 241; 34-77, 1951). Namely, 1 ml of concentrated hydrochloric acid and 1 ml of 0.04% indole solution were added to 2 ml of the sample and then the resultant mixture was heated to 100° C. in boiling water. After quenching followed by an extraction with 4 ml of chloroform, the chloroform layer was taken to determine bone DNA level with a spectrophotometer (490 nm).

Test [4] relates to femur diaphysis and metaphysis tissues. In words: Calcium level in bone tissues by oral administration. The format is in vivo, rat. Particulars: rats, β-cryptoxanthin 5 μg/100 g body weight, zinc 0.1 mg/100 g body weight; for Change of calcium level in diaphysis (in words) / Change of calcium level in metaphysis (in words): oral 7 days; for Calcium level in bone tissues, diaphysis part / Calcium level in bone tissues, metaphysis part: oral once a day for 7 days, femur 24 h after final administration. Here is the method: as §1
(§4) 24 hours after the final administration, femur was extracted, and the change in calcium levels in diaphysis and metaphysis tissues was examined with the method of Example 1.

Test [5] deals with alkaline phosphatase in bone tissues (femur diaphysis and metaphysis). In words: Alkaline phosphatase activity in bone tissues by oral administration. The format is in vivo, rat. Particulars: rats, β-cryptoxanthin 5 μg/100 g body weight, zinc 0.1 mg/100 g body weight; for Change of alkaline phosphatase activity in diaphysis and metaphysis tissues (in words): oral 7 days; for Alkaline phosphatase activity in bone tissues, diaphysis part / Alkaline phosphatase activity in bone tissues, metaphysis part: oral once a day for 7 days. The protocol:
as §2, with “mixture. The absorbance (405 nm) was determined with a spectrophotometer to examine bone alkaline phosphatase activity of a therapeutic agent for bones and of a compound known to be effective for bones.” for “mixture.”
as §4
The change of alkaline phosphatase activity in diaphysis and metaphysis tissues which were extracted in the same manner as in Example 5 was examined with the method of Example 3.

Test [6] relates to femur diaphysis and metaphysis tissues. In words: DNA level in bone tissues by oral administration. The class given is in vivo, rat. Particulars: rats, β-cryptoxanthin 5 μg/100 g body weight, zinc 0.1 mg/100 g body weight; for Change of DNA level in diaphysis (in words) / Change of DNA level in metaphysis tissues (in words): oral 7 days; for DNA level in bone tissues, diaphysis part / DNA level in bone tissues, metaphysis part: oral once a day for 7 days. The protocol:
as §3, §4
The change of DNA level in diaphysis and metaphysis tissues which were extracted in the same manner as in Example 5 was examined with the method of Example 4.

Test [7] relates to bone protein synthesis. Particulars: non-patent document 4; cited from earlier work.
Test [8] relates to diaphysis and metaphysis tissues of a femur. Particulars: cited from earlier work.
Where [9] appears, read: Example 2, zinc, genistein, menaquinone-7 each 10^−6 M.

Regarding `O=c1c(-c2ccc(O)cc2)coc2cc(O)cc(O)c12` [genistein, reference compound], in test [1] (setting [9]), the “Change of calcium levels in bone tissues (in words)” value is “did not increase significantly”; the “Calcium level in bone tissues, diaphysis part” value (“Calcium level … diaphysis part” for short) is reported as 211.0 ± 7.93 mg/g bone dry weight; the “Calcium level in bone tissues, metaphysis part” value (“Calcium level … metaphysis part” for short) was 189.3 ± 6.40 mg/g bone dry weight. In test [1], the “Change of calcium level in bone tissues (in words)” value is given as “increasing significantly”.
Turning to `CC(C)=CCC/C(C)=C/CC/C(C)=C/CC/C(C)=C/CC/C(C)=C/CC/C(C)=C/CC/C(C)=C/CC1=C(C)C(=O)c2ccccc2C1=O` [menaquinone-7, reference compound], in test [1] (setting [9]), the “Change of calcium levels in bone tissues (in words)” value is “did not increase significantly”; the “Calcium level … diaphysis part” value came to 219.8 ± 4.20 mg/g bone dry weight; the “Calcium level … metaphysis part” value was 184.9 ± 2.70 mg/g bone dry weight. Besides, the “Change of calcium level in bone tissues (in words)” value in test [1] is on record as “increasing significantly”.
In the case of `O=S(=O)([O-])[O-].[Zn+2]` [zinc, zinc sulfate], in test [2], the “Alkaline phosphatase activity in bone tissues, diaphysis part” value stood at 1.019 ± 0.061 μmol/min/mg protein; the “Alkaline phosphatase activity in bone tissues, metaphysis part” value is 1.190 ± 0.079 μmol/min/mg protein; the “Change of alkaline phosphatase activity in bone tissues compared to the control group (in words)” value was “did not change significantly”. For the same compound, in test [3], the “DNA level in bone tissues, diaphysis part” value (from here on “DNA level … diaphysis part”) was determined as 1.471 ± 0.052 mg/g bone wet weight; the “DNA level in bone tissues, metaphysis part” value (“DNA level … metaphysis part” for short) is reported as 3.025 ± 0.271 mg/g bone wet weight; the “Change of DNA level in bone tissues compared to the control group (in words)” value is reported as “did not change significantly”. Moreover, in test [4], the “Change of calcium level in diaphysis (in words)” value is listed as “did not induce a significant change”; the “Change of calcium level in metaphysis (in words)” value was “did not induce a significant change”; the “Calcium level … diaphysis part” value is on record as 227.9 ± 4.3 mg/g dry mass; the “Calcium level … metaphysis part” value amounted to 178.6 ± 4.0 mg/g dry mass. In test [5], the “Change of alkaline phosphatase activity in diaphysis and metaphysis tissues (in words)” value is “did not induce a significant change”; the “Alkaline phosphatase activity in bone tissues, diaphysis part” value was found to be 1.725 ± 0.038 μmol/min/mg protein; the “Alkaline phosphatase activity in bone tissues, metaphysis part” value was 1.170 ± 0.033 μmol/min/mg protein. In addition, in test [6], the “Change of DNA level in diaphysis (in words)” value is “did not induce a significant change”; the “Change of DNA level in metaphysis tissues (in words)” value is “did not induce a significant change”; the “DNA level … diaphysis part” value was 1.805 ± 0.154 mg/g bone wet weight; the “DNA level … metaphysis part” value is 3.278 ± 0.103 mg/g bone wet weight. For the same compound, the “Concentration at which synthesis of bone protein is promoted” value in test [7] is ≥ 10^−4 M. Also, in test [1] (Example 1, zinc 10^−6 M), the “Calcium level … diaphysis part” value is given as 215.5 ± 2.01 mg/g bone dry weight; the “Calcium level … metaphysis part” value is given as 185.6 ± 1.56 mg/g bone dry weight; the “Change of calcium levels in bone tissues compared to the control group (in words)” value was “did not change significantly”. Besides, in test [1] (setting [9]), the “Change of calcium levels in bone tissues (in words)” value is reported as “did not increase significantly”; the “Calcium level … diaphysis part” value was determined as 224.3 ± 2.90 mg/g bone dry weight; the “Calcium level … metaphysis part” value turned out to be 190.2 ± 2.53 mg/g bone dry weight.
`CC1=C(/C=C/C(C)=C/C=C/C(C)=C/C=C/C=C(C)/C=C/C=C(C)/C=C/C2=C(C)C[C@@H](O)CC2(C)C)C(C)(C)CCC1` [β-cryptoxanthin]: in test [2], the “Alkaline phosphatase activity in bone tissues, diaphysis part” value is 1.010 ± 0.078 μmol/min/mg protein; the “Alkaline phosphatase activity in bone tissues, metaphysis part” value was determined as 1.122 ± 0.078 μmol/min/mg protein; the “Change of alkaline phosphatase activity in bone tissues compared to the control group (in words)” value was “did not change significantly”. For the same compound, in test [3], the “DNA level … diaphysis part” value is recorded as 1.358 ± 0.089 mg/g bone wet weight; the “DNA level … metaphysis part” value turned out to be 3.141 ± 0.078 mg/g bone wet weight; the “Change of DNA level in bone tissues compared to the control group (in words)” value is “did not change significantly”. Also, in test [4], the “Change of calcium level in diaphysis (in words)” value is given as “did not induce a significant change”; the “Change of calcium level in metaphysis (in words)” value is “increased significantly”; the “Calcium level … diaphysis part” value amounted to 233.6 ± 6.8 mg/g dry mass; the “Calcium level … metaphysis part” value was 190.1 ± 3.4 mg/g dry mass. Besides, in test [5], the “Change of alkaline phosphatase activity in diaphysis and metaphysis tissues (in words)” value is on record as “did not induce a significant change”; the “Alkaline phosphatase activity in bone tissues, diaphysis part” value came out at 1.703 ± 0.056 μmol/min/mg protein; the “Alkaline phosphatase activity in bone tissues, metaphysis part” value worked out at 1.159 ± 0.048 μmol/min/mg protein. Besides, in test [6], the “Change of DNA level in diaphysis (in words)” value is given as “did not induce a significant change”; the “Change of DNA level in metaphysis tissues (in words)” value was “significant increase”; the “DNA level … diaphysis part” value came out at 1.980 ± 0.251 mg/g bone wet weight; the “DNA level … metaphysis part” value stood at 4.102 ± 0.055 mg/g bone wet weight. The “Effective concentration for promoting osteogenesis and increasing bone calcium level” value in test [8] (48-hour culture system of a bone tissue culture system, earlier report of the inventors) is reported as 10^−8-10^−6 M. In addition, the “Concentration at which osteogenesis is promoted and bone calcium increased” value in test [8] (48 h culture in a bone tissue culture system, patent document 10, non-patent document 2) is on record as 10^−1 to 10^−6. Further, the “Calcium level, bone calcification accelerating enzyme and DNA level in bone tissues (in words)” value in test [8] (femur diaphysis and metaphysis tissues cultured in medium containing β-cryptoxanthin, earlier report of the inventors) is given as “significant increase”. For the same compound, in test [1] (Example 1, zinc 10^−6 M), the “Calcium level … diaphysis part” value was 221.5 ± 3.95 mg/g bone dry weight; the “Calcium level … metaphysis part” value was 189.5 ± 2.39 mg/g bone dry weight; the “Change of calcium levels in bone tissues compared to the control group (in words)” value is given as “did not change significantly”. Further, in test [1] (setting [9]), the “Change of calcium levels in bone tissues (in words)” value is “did not increase significantly”; the “Calcium level … diaphysis part” value is given as 221.5 ± 3.45 mg/g bone dry weight; the “Calcium level … metaphysis part” value was 189.5 ± 3.44 mg/g bone dry weight.
